Values quoted from earlier work, collected in patent publication US11207297B2, “Liquid pharmaceutical composition of clonidine” (SYRI LTD, priority 2016, dated 2021).

Conditions: after oral administration

Absorption from the gastrointestinal tract: almost completely absorbed
SMILES: Clc1cccc(Cl)c1N=C1NCCN1 [clonidine, N-(2,6-dichlorophenyl)-4,5-dihydro-1H-imidazol-2-amine]
